Key:
Assay in all cases: radiometric filter-binding kinase assay, Kinase HotSpot
Conditions in all cases: compound 0.5 µM; ATP 10 µM
[1] = tested on: MAP2K6 (human), P52564 [S207E/T211E]
[2] = target: PRKD3 (human) (UniProt O94806)
[3] = target: CLK2 (human) (UniProt P49760)
[4] = target: CSNK1G1 (human) (UniProt Q9HCP0)
[5] = target: CHEK1 (human) (UniProt O14757)
[6] = target: CAMK1 (human) (UniProt Q14012)
[7] = target: MAP2K2 (human) (UniProt P36507)
[8] = target: BLK (human) (UniProt P51451)
[9] = target: SIK2 (human) (UniProt Q9H0K1)
[10] = target: IRAK4 (human) (UniProt Q9NWZ3)
[11] = target: MAP3K14 (human) (UniProt Q99558)
[12] = target: PLK2 (human) (UniProt Q9NYY3)
[13] = target: ROCK2 (human) (UniProt O75116)
[14] = target: PAK6 (human) (UniProt Q9NQU5)
[15] = target: DYRK3 (human) (UniProt O43781)
[16] = target: STK17A (human) (UniProt Q9UEE5)
[17] = target: CDK4 CCND1 (human) (UniProt P24385+P11802)
[18] = target: CSNK1E (human) (UniProt P49674)
[19] = target: BRSK2 (human) (UniProt Q8IWQ3)
[20] = target: RPS6KB1 (human) (UniProt P23443)
[21] = target: AKT3 (human) (UniProt Q9Y243)
[22] = target: DDR2 (human) (UniProt Q16832)
[23] = target: SRC (human) (UniProt P12931)
[24] = target: ALK (human) (UniProt Q9UM73)
[25] = target: OXSR1 (human) (UniProt O95747)
[26] = target: ROCK1 (human) (UniProt Q13464)
[27] = target: MUSK (human) (UniProt O15146)
[28] = target: HIPK1 (human) (UniProt Q86Z02)
[29] = target: PAK3 (human) (UniProt O75914)
[30] = target: STK16 (human) (UniProt O75716)
[31] = target: TSSK1B (human) (UniProt Q9BXA7)
[32] = target: LTK (human) (UniProt P29376)
[33] = target: PRKCI (human) (UniProt P41743)
[34] = target: ADRBK1 (human) (UniProt P25098)
[35] = target: EPHB1 (human) (UniProt P54762)
[36] = target: PTK2B (human) (UniProt Q14289)
[37] = target: MAP2K1 (human) (UniProt Q02750)
[38] = target: MAP3K10 (human) (UniProt Q02779)
[39] = target: MAP3K8 (human) (UniProt P41279)
[40] = target: STK4 (human) (UniProt Q13043)
[41] = target: IKBKE (human) (UniProt Q14164)
[42] = target: MAPK11 (human) (UniProt Q15759)

CSNK1E (human), sequence (P49674 whole entry, looked up): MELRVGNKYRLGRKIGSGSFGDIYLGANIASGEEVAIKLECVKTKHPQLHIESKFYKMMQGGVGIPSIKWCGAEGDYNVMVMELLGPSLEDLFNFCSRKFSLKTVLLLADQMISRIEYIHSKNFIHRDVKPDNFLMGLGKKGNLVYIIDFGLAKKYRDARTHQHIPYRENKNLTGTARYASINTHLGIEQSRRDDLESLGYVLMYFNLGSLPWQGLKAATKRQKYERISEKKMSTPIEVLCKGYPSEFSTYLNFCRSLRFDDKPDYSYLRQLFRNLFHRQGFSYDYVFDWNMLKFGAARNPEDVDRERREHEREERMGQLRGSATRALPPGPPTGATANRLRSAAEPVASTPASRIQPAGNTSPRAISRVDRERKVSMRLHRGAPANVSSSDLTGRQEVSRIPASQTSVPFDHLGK
MAP3K10 (human), sequence (Q02779 whole entry, looked up): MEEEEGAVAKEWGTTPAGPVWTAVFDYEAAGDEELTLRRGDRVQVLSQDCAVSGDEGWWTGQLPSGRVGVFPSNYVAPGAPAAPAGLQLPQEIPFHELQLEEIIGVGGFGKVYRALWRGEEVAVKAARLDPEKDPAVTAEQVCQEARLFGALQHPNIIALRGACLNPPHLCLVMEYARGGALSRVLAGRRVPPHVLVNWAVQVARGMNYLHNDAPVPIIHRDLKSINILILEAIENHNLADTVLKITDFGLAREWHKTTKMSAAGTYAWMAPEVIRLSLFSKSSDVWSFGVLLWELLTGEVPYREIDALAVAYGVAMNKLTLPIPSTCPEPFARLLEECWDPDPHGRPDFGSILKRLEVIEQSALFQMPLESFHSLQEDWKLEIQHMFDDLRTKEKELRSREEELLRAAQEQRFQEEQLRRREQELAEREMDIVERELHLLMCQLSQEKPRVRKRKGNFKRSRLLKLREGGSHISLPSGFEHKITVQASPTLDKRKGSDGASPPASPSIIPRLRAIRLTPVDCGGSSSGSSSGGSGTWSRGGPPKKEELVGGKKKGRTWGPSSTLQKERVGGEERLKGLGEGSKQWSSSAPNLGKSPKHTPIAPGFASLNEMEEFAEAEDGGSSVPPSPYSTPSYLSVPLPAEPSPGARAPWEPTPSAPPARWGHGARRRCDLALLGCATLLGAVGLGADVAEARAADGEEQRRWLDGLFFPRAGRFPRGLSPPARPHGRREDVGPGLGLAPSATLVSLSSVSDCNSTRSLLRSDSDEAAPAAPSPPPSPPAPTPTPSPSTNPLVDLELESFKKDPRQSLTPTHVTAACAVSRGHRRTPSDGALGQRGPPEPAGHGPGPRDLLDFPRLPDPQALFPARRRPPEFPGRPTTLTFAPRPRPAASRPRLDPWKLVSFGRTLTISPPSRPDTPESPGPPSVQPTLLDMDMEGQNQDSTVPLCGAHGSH
STK16 (human), sequence (O75716 whole entry, looked up): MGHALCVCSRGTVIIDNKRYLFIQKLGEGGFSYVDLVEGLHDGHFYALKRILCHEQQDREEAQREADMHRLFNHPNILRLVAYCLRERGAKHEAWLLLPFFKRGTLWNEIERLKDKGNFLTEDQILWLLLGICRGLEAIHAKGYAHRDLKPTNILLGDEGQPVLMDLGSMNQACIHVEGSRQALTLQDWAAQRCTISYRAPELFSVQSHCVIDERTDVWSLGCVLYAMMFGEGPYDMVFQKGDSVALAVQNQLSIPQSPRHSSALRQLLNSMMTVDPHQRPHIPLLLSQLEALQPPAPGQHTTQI
RPS6KB1 (human), sequence (P23443 whole entry, looked up): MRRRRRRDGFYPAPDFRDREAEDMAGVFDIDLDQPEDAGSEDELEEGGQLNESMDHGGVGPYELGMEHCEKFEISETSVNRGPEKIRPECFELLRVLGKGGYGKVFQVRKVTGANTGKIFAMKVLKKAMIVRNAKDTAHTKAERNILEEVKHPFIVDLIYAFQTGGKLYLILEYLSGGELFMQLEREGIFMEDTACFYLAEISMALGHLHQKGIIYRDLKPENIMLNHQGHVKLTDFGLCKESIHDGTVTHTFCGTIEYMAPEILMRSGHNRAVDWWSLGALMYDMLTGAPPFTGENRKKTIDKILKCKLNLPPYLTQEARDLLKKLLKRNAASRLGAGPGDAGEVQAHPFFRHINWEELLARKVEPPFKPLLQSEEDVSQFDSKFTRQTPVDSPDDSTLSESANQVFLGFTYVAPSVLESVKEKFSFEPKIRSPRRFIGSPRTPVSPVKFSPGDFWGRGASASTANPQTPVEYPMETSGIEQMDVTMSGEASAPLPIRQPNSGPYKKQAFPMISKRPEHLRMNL
ROCK1 (human), sequence (Q13464 whole entry, looked up): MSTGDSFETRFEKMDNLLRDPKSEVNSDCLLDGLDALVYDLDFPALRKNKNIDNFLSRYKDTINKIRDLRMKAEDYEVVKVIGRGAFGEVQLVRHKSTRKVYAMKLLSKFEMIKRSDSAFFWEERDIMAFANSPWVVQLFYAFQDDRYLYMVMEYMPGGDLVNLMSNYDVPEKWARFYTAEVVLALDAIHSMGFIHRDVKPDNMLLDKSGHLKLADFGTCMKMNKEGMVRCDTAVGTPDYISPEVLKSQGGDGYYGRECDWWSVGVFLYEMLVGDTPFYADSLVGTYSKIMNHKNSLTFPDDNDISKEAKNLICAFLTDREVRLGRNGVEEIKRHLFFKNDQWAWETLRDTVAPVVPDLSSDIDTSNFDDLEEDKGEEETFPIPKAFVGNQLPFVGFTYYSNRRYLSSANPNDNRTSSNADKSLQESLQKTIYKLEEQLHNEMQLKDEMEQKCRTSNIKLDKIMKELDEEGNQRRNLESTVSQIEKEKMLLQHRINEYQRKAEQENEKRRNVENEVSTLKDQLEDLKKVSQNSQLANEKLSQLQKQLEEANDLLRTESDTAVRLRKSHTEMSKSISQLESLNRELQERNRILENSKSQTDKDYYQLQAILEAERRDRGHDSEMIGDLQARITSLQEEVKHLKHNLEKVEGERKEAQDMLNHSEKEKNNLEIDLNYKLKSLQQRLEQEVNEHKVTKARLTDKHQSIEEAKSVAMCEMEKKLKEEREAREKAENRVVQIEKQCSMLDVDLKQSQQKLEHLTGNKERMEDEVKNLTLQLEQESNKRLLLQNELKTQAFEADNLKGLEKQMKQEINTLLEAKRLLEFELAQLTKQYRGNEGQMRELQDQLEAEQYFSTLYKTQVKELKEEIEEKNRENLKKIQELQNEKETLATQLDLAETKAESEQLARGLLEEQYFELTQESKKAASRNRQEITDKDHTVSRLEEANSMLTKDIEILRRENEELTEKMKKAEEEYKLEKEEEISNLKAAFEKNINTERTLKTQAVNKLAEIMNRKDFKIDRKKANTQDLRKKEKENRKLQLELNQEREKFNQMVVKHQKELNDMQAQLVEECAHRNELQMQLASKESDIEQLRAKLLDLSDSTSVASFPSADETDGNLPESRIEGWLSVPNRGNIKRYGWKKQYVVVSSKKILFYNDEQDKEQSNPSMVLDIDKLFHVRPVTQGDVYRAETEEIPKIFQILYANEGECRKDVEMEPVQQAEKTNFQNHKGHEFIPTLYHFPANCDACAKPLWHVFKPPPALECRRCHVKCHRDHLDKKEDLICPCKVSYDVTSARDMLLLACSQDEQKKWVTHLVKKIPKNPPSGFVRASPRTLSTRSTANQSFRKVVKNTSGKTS
CDK4 CCND1 (human), sequence (P11802 whole entry, looked up): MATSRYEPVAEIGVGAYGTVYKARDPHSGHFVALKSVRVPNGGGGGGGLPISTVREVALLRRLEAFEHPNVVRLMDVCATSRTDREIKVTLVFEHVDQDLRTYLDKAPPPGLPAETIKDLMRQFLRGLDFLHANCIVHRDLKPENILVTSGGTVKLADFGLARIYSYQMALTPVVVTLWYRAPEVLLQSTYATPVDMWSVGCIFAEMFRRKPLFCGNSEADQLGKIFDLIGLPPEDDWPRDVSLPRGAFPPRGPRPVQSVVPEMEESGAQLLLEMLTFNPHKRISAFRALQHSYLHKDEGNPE
CDK4 CCND1 (human), sequence (P24385 whole entry, looked up): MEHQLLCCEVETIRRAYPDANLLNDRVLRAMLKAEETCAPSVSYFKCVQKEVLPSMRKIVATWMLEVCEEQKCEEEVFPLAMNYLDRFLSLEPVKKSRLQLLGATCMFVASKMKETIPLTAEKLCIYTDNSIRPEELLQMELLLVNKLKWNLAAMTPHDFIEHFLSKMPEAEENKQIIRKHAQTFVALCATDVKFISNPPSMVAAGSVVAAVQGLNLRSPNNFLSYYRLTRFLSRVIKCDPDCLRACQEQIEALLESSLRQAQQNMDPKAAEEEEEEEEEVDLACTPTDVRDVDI
ADRBK1 (human), sequence (P25098 whole entry, looked up): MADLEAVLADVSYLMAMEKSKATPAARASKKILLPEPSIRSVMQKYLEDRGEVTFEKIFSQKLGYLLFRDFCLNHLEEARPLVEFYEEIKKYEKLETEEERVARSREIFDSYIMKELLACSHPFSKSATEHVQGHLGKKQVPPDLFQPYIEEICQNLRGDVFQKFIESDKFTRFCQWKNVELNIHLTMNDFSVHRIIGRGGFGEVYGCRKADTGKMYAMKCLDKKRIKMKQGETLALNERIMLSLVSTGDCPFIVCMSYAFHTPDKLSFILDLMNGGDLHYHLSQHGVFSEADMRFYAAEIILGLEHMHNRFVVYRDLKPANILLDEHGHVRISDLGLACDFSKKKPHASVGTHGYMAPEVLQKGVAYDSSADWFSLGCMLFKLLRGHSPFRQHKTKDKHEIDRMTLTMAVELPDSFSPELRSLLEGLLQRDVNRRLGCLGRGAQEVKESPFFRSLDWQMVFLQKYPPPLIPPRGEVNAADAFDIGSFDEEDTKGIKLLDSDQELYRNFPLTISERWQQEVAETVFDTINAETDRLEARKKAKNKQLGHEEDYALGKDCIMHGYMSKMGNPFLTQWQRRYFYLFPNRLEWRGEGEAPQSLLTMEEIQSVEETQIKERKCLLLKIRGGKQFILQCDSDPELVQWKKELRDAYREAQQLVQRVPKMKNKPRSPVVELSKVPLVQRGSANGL

## O=C1c2ccccc2-c2nc3nnnn3nc21
[1]
  residual activity: 85.7%
[2]
  residual activity: 83.4%
[3]
  residual activity: 92.1%
[4]
  residual activity: 85.2%
[5]
  residual activity: 112%
[6]
  residual activity: 68.7%
[7]
  residual activity: 94.7%
[8]
  residual activity: 109%
[9]
  residual activity: 106%
[10]
  residual activity: 96.9%
[11]
  residual activity: 124%
[12]
  residual activity: 37.3%
[13]
  residual activity: 81.7%
[14]
  residual activity: 108%
[15]
  residual activity: 88.6%
[16]
  residual activity: 83.8%
[17]
  residual activity: 59.9%
[18]
  residual activity: 80.6%
[19]
  residual activity: 66.7%
[20]
  residual activity: 85.8%
[21]
  residual activity: 81.2%
[22]
  residual activity: 58.7%
[23]
  residual activity: 80.4%
[24]
  residual activity: 83.5%
[25]
  residual activity: 83%
[26]
  residual activity: 94.5%
[27]
  residual activity: 107%
[28]
  residual activity: 99.3%
[29]
  residual activity: 97.1%
[30]
  residual activity: 80.5%
[31]
  residual activity: 88.7%
[32]
  residual activity: 177%
[33]
  residual activity: 85.7%
[34]
  residual activity: 106%
[35]
  residual activity: 89.5%
[36]
  residual activity: 52.1%
[37]
  residual activity: 88.7%
[38]
  residual activity: 94.6%
[39]
  residual activity: 75.9%
[40]
  residual activity: 87.8%
[41]
  residual activity: 89.2%
[42]
  residual activity: 101%

## CN(C)S(=O)(=O)c1ccc2c(c1)/C(=C/c1cc3c([nH]1)CCCC3)C(=O)N2
[1]
  residual activity: 94.6%
[2]
  residual activity: 90.4%
[3]
  residual activity: 32.1%
[4]
  residual activity: 101%
[5]
  residual activity: 76.3%
[6]
  residual activity: 107%
[7]
  residual activity: 104%
[8]
  residual activity: 13.9%
[9]
  residual activity: 86.4%
[10]
  residual activity: 57.7%
[11]
  residual activity: 94.6%
[12]
  residual activity: 94.4%
[13]
  residual activity: 88.2%
[14]
  residual activity: 98.9%
[15]
  residual activity: 99.1%
[17]
  residual activity: 107%
[18]
  residual activity: 104%
[19]
  residual activity: 48.7%
[20]
  residual activity: 96.5%
[21]
  residual activity: 96.7%
[23]
  residual activity: 23.6%
[24]
  residual activity: 43.6%
[25]
  residual activity: 89.1%
[26]
  residual activity: 95.2%
[27]
  residual activity: 82.8%
[29]
  residual activity: 97.6%
[30]
  residual activity: 104%
[31]
  residual activity: 74.6%
[32]
  residual activity: 52.7%
[33]
  residual activity: 95.9%
[34]
  residual activity: 95%
[35]
  residual activity: 82.8%
[36]
  residual activity: 52.6%
[37]
  residual activity: 88.7%
[38]
  residual activity: 99.1%
[39]
  residual activity: 94.6%
[40]
  residual activity: 13.1%
[41]
  residual activity: 87.9%
[42]
  residual activity: 108%

## Fc1ccc(-c2nc3n(c2-c2ccncc2)CCS3)cc1
[1]
  residual activity: 104%
[2]
  residual activity: 88.2%
[3]
  residual activity: 105%
[4]
  residual activity: 86.6%
[5]
  residual activity: 95.9%
[6]
  residual activity: 107%
[7]
  residual activity: 106%
[8]
  residual activity: 97.8%
[9]
  residual activity: 108%
[10]
  residual activity: 109%
[11]
  residual activity: 103%
[12]
  residual activity: 103%
[13]
  residual activity: 99.1%
[14]
  residual activity: 106%
[15]
  residual activity: 103%
[16]
  residual activity: 99.4%
[17]
  residual activity: 114%
[18]
  residual activity: 20%
[20]
  residual activity: 108%
[21]
  residual activity: 109%
[22]
  residual activity: 94.9%
[23]
  residual activity: 98.2%
[24]
  residual activity: 124%
[25]
  residual activity: 92.5%
[26]
  residual activity: 103%
[27]
  residual activity: 91.1%
[28]
  residual activity: 108%
[29]
  residual activity: 104%
[30]
  residual activity: 106%
[31]
  residual activity: 119%
[32]
  residual activity: 102%
[33]
  residual activity: 90.9%
[34]
  residual activity: 102%
[35]
  residual activity: 106%
[36]
  residual activity: 106%
[37]
  residual activity: 93.6%
[38]
  residual activity: 101%
[39]
  residual activity: 88.1%
[41]
  residual activity: 101%
[42]
  residual activity: 97.2%
